Assay results reported in ChEMBL document CHEMBL1800006, “Azaphilones and p-terphenyls from the mangrove endophytic fungus Penicillium chermesinum (ZH4-E2) isolated from the South China Sea” (J Nat Prod, 2011).

What was measured:
[1] = target: Acetylcholinesterase (Electrophorus electricus, UniProt O42275); assay: Inhibition of electric eel AChE using acetylthiocholine chloride as substrate after 15 mins by Ellman's method
[2] = Inhibition of alpha glucosidase by UV-[…] spectroscopy

Sequence of Acetylcholinesterase (O42275 whole entry): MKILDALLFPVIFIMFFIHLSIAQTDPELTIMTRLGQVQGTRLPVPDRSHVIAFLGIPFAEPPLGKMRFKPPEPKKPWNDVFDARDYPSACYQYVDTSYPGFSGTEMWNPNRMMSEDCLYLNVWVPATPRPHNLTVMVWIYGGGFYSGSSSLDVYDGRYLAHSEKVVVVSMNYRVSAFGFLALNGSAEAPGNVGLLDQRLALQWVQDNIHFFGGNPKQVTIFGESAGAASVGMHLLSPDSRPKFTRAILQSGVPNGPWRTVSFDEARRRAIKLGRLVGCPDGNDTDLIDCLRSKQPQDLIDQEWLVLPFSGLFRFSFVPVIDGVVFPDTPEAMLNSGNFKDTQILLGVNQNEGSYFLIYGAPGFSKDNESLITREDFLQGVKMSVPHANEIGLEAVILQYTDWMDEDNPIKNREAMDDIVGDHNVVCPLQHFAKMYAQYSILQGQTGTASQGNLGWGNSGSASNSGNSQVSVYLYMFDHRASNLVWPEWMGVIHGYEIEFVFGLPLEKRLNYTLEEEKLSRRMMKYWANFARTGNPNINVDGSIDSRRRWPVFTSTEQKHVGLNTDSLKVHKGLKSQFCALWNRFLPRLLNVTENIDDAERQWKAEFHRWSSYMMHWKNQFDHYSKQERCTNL

| SMILES | IC50 [1] [µM] | IC50 [2] [µM] |
| --- | --- | --- |
| COc1c(-c2ccc(O)cc2)cc(O)c(-c2ccc(O)cc2)c1O | > 100 | 0.9 |
| COc1c(-c2ccc(O)cc2)cc(O)c(-c2ccc(O)c(O)c2)c1O | > 100 | 4.9 |
| COc1c(-c2ccc(O)cc2)cc(O)c2c1oc1cc(O)c(O)cc12 | 7.8 | > 100 |
| COc1c(-c2ccc(O)c(O)c2)cc(O)c(-c2ccc(O)c(O)c2)c1O | > 100 | 2.9 |
| COc1c(-c2ccc(O)c(O)c2)cc(O)c2c1oc1cc(O)c(O)cc12 [6'-DESMETHYLCANDIDUSIN B] | 5.2 | > 100 |
| CC[C@H](C)C(=O)C[C@H]1C2=COC(C)=CC2=CC(=O)[C@]1(C)O [CHERMESINONE A] | > 100 | 24.5 |
| CC[C@H](C)C(=O)[C@H]1C(=O)O[C@@]2(C)C(=O)C=C3C=C(C)OC=C3[C@H]12 [CHERMESINONE B] | > 100 | > 100 |
| CC[C@H](C)C(=O)[C@H]1C(=O)O[C@@]2(C)C(=O)C=C3C=C(C)O[C@H](O)[C@H]3[C@H]12 [CHERMESINONE C] | > 100 | > 100 |
| O=c1c(-c2ccc(O)cc2)coc2cc(O)cc(O)c12 [GENISTEIN] | – | 9.8 |
